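Protocol summary: plate cells (96-well), add compound at 5 concentrations, incubate 48 h, interpolate endpoints linearly. GI50: concentration for 50% inhibition of growth. The concentration for full growth arrest is given as TGI.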
Experiments:
Test in all cases: inhibition of tumour cell growth, NCI panel, 48 h
KM12 colon = system: KM12 colon
UO-31 renal = system: UO-31 renal
MDA-MB-231 breast = system: MDA-MB-231 breast
OVCAR-5 ovarian = system: OVCAR-5 ovarian
IGROV1 ovarian = system: IGROV1 ovarian
RPMI-8226 leukemia = system: RPMI-8226 leukemia
UACC-257 melanoma = system: UACC-257 melanoma
K-562 leukemia = system: K-562 leukemia
PC-3 prostate = system: PC-3 prostate
CAKI-1 renal = system: CAKI-1 renal
COLO 205 colon = system: COLO 205 colon
EKVX NSCLC = system: EKVX NSCLC
TK-10 renal = system: TK-10 renal
NCI/ADR-RES ovarian = system: NCI/ADR-RES ovarian
SW-620 colon = system: SW-620 colon
HCT-15 colon = system: HCT-15 colon
NCI-H460 lung = system: NCI-H460 lung
OVCAR-8 ovarian = system: OVCAR-8 ovarian
HOP-62 NSCLC = system: HOP-62 NSCLC
HS 578T breast = system: HS 578T breast
SR leukemia = system: SR leukemia
HCT-116 colon = system: HCT-116 colon
M14 melanoma = system: M14 melanoma
SK-MEL-28 melanoma = system: SK-MEL-28 melanoma
DU-145 prostate = system: DU-145 prostate
ACHN renal = system: ACHN renal
A549 NSCLC = system: A549 NSCLC
BT-549 breast = system: BT-549 breast
U251 CNS = system: U251 CNS
MCF7 breast = system: MCF7 breast
MDA-MB-435 = system: MDA-MB-435
786-0 renal = system: 786-0 renal
LOX IMVI melanoma = system: LOX IMVI melanoma
SK-OV-3 ovarian = system: SK-OV-3 ovarian
SK-MEL-2 melanoma = system: SK-MEL-2 melanoma
SNB-19 CNS = system: SNB-19 CNS
OVCAR-3 ovarian = system: OVCAR-3 ovarian
UACC-62 melanoma = system: UACC-62 melanoma
HCC-2998 colon = system: HCC-2998 colon
SK-MEL-5 melanoma = system: SK-MEL-5 melanoma
RXF 393 renal = system: RXF 393 renal
SF-539 CNS = system: SF-539 CNS
SF-268 CNS = system: SF-268 CNS
NCI-H522 lung = system: NCI-H522 lung
HL-60(TB) leukemia = system: HL-60(TB) leukemia
NCI-H23 lung = system: NCI-H23 lung
SF-295 CNS = system: SF-295 CNS
OVCAR-4 ovarian = system: OVCAR-4 ovarian
HOP-92 NSCLC = system: HOP-92 NSCLC
SN12C renal = system: SN12C renal

COc1ccc(Nc2nc3ccccc3c3occc23)cc1
GI50 (KM12 colon): 1.78 µM | TGI (KM12 colon): 7.99 µM | GI50 (UO-31 renal): 12.3 µM | TGI (UO-31 renal): > 50 µM | GI50 (MDA-MB-231 breast): 1.34 µM | TGI (MDA-MB-231 breast): 10.3 µM | GI50 (OVCAR-5 ovarian): 7.95 µM | TGI (OVCAR-5 ovarian): 16.6 µM | GI50 (IGROV1 ovarian): 37.4 µM | TGI (IGROV1 ovarian): > 50 µM | GI50 (RPMI-8226 leukemia): 8.35 µM | TGI (RPMI-8226 leukemia): 22.6 µM | GI50 (UACC-257 melanoma): 19.8 µM | TGI (UACC-257 melanoma): > 50 µM | GI50 (K-562 leukemia): 6.74 µM | TGI (K-562 leukemia): > 50 µM | GI50 (PC-3 prostate): 12.9 µM | TGI (PC-3 prostate): > 50 µM | GI50 (CAKI-1 renal): > 50 µM | TGI (CAKI-1 renal): > 50 µM | GI50 (COLO 205 colon): 7.71 µM | TGI (COLO 205 colon): 18.6 µM | GI50 (EKVX NSCLC): 9.96 µM | TGI (EKVX NSCLC): > 50 µM | GI50 (TK-10 renal): 6.83 µM | TGI (TK-10 renal): 16.4 µM | GI50 (NCI/ADR-RES ovarian): 9.32 µM | TGI (NCI/ADR-RES ovarian): 18.7 µM | GI50 (SW-620 colon): 4.06 µM | TGI (SW-620 colon): 11 µM | GI50 (HCT-15 colon): 2.95 µM | TGI (HCT-15 colon): 10.7 µM | GI50 (NCI-H460 lung): > 50 µM | TGI (NCI-H460 lung): > 50 µM | GI50 (OVCAR-8 ovarian): 8.51 µM | TGI (OVCAR-8 ovarian): 22.7 µM | GI50 (HOP-62 NSCLC): 10 µM | TGI (HOP-62 NSCLC): 23.7 µM | GI50 (HS 578T breast): 7.12 µM | TGI (HS 578T breast): 16.3 µM | GI50 (SR leukemia): 0.663 µM | TGI (SR leukemia): > 50 µM | GI50 (HCT-116 colon): 6.9 µM | TGI (HCT-116 colon): 13.4 µM | GI50 (M14 melanoma): 9.72 µM | TGI (M14 melanoma): 18.9 µM | GI50 (SK-MEL-28 melanoma): 7.19 µM | TGI (SK-MEL-28 melanoma): 18.8 µM | GI50 (DU-145 prostate): 6.65 µM | TGI (DU-145 prostate): 13.1 µM | GI50 (ACHN renal): 5.35 µM | TGI (ACHN renal): 13.7 µM | GI50 (A549 NSCLC): 32.9 µM | TGI (A549 NSCLC): > 50 µM | GI50 (BT-549 breast): 6.08 µM | TGI (BT-549 breast): 13.5 µM | GI50 (U251 CNS): 5.13 µM | TGI (U251 CNS): 11.7 µM | GI50 (MCF7 breast): 7.02 µM | TGI (MCF7 breast): 27.2 µM | GI50 (MDA-MB-435): 1.63 µM | TGI (MDA-MB-435): 5.59 µM | GI50 (786-0 renal): 5.02 µM | TGI (786-0 renal): 10.8 µM | GI50 (LOX IMVI melanoma): 0.649 µM | TGI (LOX IMVI melanoma): 5.32 µM | GI50 (SK-OV-3 ovarian): 0.005 µM | TGI (SK-OV-3 ovarian): 9.95 µM | GI50 (SK-MEL-2 melanoma): 8.68 µM | TGI (SK-MEL-2 melanoma): 22.5 µM | GI50 (SNB-19 CNS): 7.62 µM | TGI (SNB-19 CNS): 16.5 µM | GI50 (OVCAR-3 ovarian): 7.85 µM | TGI (OVCAR-3 ovarian): > 50 µM | GI50 (UACC-62 melanoma): 5.48 µM | TGI (UACC-62 melanoma): 11.4 µM | GI50 (HCC-2998 colon): 5 µM | TGI (HCC-2998 colon): 11.1 µM | GI50 (SK-MEL-5 melanoma): 5.08 µM | TGI (SK-MEL-5 melanoma): 11.1 µM | GI50 (RXF 393 renal): 5.42 µM | TGI (RXF 393 renal): 19.1 µM | GI50 (SF-539 CNS): 8.89 µM | TGI (SF-539 CNS): 18.9 µM | GI50 (SF-268 CNS): 6.55 µM | TGI (SF-268 CNS): 14.4 µM | GI50 (NCI-H522 lung): 14.5 µM | TGI (NCI-H522 lung): 33 µM | GI50 (HL-60(TB) leukemia): 10.3 µM | TGI (HL-60(TB) leukemia): > 50 µM | GI50 (NCI-H23 lung): 5.72 µM | TGI (NCI-H23 lung): 12.4 µM | GI50 (SF-295 CNS): 6.64 µM | TGI (SF-295 CNS): 13.2 µM | GI50 (OVCAR-4 ovarian): 9.2 µM | TGI (OVCAR-4 ovarian): 39.7 µM | GI50 (HOP-92 NSCLC): 7.62 µM | TGI (HOP-92 NSCLC): 21.8 µM | GI50 (SN12C renal): 7.37 µM | TGI (SN12C renal): 17.5 µM
